Counter-ions that a name gives are not always drawn. Values belong to the compound of their own block, whether it stands above or below them.
Key:
[1] = system: complement alternative pathway; experiment: Biological Test Example 2: complement alternative pathway inhibition, IBL alternative pathway kit, serum from healthy volunteers; format: biochemical, human; details: LPS-coated plate, 37 °C 1 h, read-out: IC50 for inhibiting alternative pathway
Description: The inhibitory effect of the compounds on the complement alternative pathway was detected using the IBL alternative pathway kit (COMPL AP330 RUO). Serum from healthy volunteers was collected and 1 portion was diluted with a buffer of 20 mM EDTA in gelatin (0.15 mM CaCl2, 141 mM NaCl, 4.5 mM MgCl2, 4.2 mM HEPES, and 0.1% gelatin at pH 7.4) to 50% (v/v), and 1 portion was diluted to 50% (v/v) with a buffer of 20 mM EGTA in gelatin. The compounds were prepared in DMSO to a working solution 100 times the final concentration. Before use, 50% of the above serum was diluted 1/18 with the AP diluent in the kit. 1 part of the compound working solution (v/v) or DMSO (positive control PC) was added to 99 parts of the diluted serum containing EGTA for pretreatment for 30 min, and 1 part of DMSO (v/v) was added to 99 parts of the diluted serum containing EDTA, as negative control (NC). The serum pretreated with the above compounds (or DMSO) was added at […] to the LPS-coated 96-well plate, incubated at 37° C. for 1 h, and the plate was washed 3 times with washing solution in the kit; the conjugated chromogenic substrate was added according to the instruction in the kit, and the absorbance was read at 405 nm with a microplate reader. The inhibitory activity of the compounds on alternative pathway was calculated using the following formula.
OD^CPD was the OD value when the inhibitor was added, OD^NC was the OD value of the negative control, and OD^PC was the OD value of the positive control.
Graphpad was used to perform nonlinear regression on the final concentrations and inhibition rates of the compounds to obtain the IC50 of the compounds for inhibiting the alternative pathway.

FB = FB (Homo sapiens, UniProt P00751); experiment: biochemical
Sequence of FB (P00751 260-764 limits assumed): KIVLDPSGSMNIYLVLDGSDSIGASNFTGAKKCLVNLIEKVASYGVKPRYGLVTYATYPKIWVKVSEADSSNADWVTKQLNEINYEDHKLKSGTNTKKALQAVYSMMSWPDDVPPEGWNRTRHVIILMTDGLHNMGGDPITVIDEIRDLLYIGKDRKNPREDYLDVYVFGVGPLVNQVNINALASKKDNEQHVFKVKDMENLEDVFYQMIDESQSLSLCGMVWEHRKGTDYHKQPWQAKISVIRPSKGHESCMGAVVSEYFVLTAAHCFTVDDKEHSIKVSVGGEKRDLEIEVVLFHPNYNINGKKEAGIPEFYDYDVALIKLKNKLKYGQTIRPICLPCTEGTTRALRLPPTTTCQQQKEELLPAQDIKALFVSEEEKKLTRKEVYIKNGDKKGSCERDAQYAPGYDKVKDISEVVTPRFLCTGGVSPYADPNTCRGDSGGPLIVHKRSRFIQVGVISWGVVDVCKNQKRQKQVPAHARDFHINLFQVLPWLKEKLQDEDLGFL
Sequence of FB (Q91132 23-649 partner limits assumed): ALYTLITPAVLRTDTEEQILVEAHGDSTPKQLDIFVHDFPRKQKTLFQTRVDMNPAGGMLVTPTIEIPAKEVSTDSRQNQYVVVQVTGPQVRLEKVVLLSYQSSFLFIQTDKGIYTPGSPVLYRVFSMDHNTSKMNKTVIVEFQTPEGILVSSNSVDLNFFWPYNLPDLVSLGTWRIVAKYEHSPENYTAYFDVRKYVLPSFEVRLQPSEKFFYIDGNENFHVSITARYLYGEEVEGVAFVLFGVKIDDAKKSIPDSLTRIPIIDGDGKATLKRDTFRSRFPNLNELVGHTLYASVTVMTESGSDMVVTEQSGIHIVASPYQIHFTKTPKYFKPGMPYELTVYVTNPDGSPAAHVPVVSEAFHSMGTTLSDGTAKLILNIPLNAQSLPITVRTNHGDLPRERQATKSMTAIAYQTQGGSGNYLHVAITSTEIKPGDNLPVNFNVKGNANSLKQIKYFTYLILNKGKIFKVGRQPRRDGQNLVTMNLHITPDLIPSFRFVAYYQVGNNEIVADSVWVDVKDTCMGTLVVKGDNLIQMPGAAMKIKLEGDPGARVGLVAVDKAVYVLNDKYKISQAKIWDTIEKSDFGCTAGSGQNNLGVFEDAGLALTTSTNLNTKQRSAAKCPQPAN
Sequence of FB (Q91132 733-984 partner limits assumed): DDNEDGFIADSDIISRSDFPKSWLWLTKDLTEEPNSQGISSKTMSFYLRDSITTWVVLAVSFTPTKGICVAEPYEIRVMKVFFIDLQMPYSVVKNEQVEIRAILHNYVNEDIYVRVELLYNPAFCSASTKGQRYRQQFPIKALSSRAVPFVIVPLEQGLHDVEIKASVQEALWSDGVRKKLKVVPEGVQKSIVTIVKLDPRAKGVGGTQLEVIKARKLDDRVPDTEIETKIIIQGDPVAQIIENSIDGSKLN
Sequence of FB (Q91132 1264-1642 partner limits assumed): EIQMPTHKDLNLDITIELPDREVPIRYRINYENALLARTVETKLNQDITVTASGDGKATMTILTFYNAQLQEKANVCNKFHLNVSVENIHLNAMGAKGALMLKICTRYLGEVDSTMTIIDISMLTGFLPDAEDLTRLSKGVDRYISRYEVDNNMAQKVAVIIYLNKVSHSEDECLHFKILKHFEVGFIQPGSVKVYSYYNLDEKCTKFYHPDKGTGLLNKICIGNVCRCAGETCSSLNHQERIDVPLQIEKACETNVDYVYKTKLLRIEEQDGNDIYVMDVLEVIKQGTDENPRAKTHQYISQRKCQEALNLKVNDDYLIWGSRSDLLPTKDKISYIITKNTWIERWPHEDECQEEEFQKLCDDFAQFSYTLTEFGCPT

[2] = Pharmacokinetic test in rats; format: in vivo, SD rats; details: for maximum plasma concentration in rats / oral bioavailability in rats / time to peak: compared with LNP023, in words; for bioavailability / Cmax / Tmax / half-life / AUC(0-t): male, SD, rat, plasma, po, i.g. (10 mg/kg); for bioavailability / Cmax / Tmax / half-life / AUC(0-t) / time to peak: rats; for AUC(0-t): read-out: AUC0-24 h
Description: Test objective: In this experiment, a single dose of each test compound was administered to SD rats intravenously and intragastrically, and the concentrations of the test compounds in plasma of rats were measured to evaluate the pharmacokinetic characteristics of the test compounds in rats.
Experimental animals: male SD rats, 200-250 g, 6-8 weeks old, 6 rats/compound, purchased from Chengdu Ddossy Experimental Animals Co., Ltd.
Experimental method: on the day of the test, 6 SD rats were randomly grouped according to their body weight. The animals were fasted with water available for 12 to 14 hours one day before the administration of a test compound, and were fed 4 hours after the administration.
Sampling: Before and after the administration, 0.15 mL of blood sample was drawn from the orbit under isoflurane anesthesia, and placed in an EDTAK2 centrifuge tube. Centrifugation was carried out at 5000 rpm at 4° C. for 10 min, and the plasma was collected.
Time points for plasma collection in IV&PO group: 0, 5 min, 15 min, 30 min, 1 h, 2 h, 4 h, 6 h, 8 h, and 24 h.
(§1) Before analysis and detection, all samples were stored at −60° C. The samples were analyzed quantitatively by LC-MS/MS.

Caco2 permeability test = format: in vitro ADME; details: human, pH 7.4, Caco-2 monolayer, 2 μM, 2 h
Description: (§2) The experiment used a monolayer of Caco-2 cells incubated in triplicate in a 96-well Transwell plate. […] Acetonitrile containing internal standard was then added to precipitate the protein. […] The integrity of the cell monolayer after 2 h of incubation was assessed by leakage of Lucifer Yellow.

Caco-2 cells = experiment: Caco2 permeability test; format: in vitro ADME; details: Caco2, compared with the trifluoroacetate of LNP023, in words
Description: as §2

[3] = Pharmacokinetic test of dogs; format: in vivo; details: male, beagle, dog, plasma, po, i.g. (5 mg/kg)
Description: (§3) Test objective: In this experiment, a single dose of test compounds was administered to beagle dogs intravenously and intragastrically, and the concentrations of the test compounds in plasma of the beagle dogs were measured to evaluate pharmacokinetic characteristics of the test compounds in the beagle dogs.
Experimental animals: Male beagle dogs, 8-11 kg, 1-3 years old, 6 dogs/compound. purchased from Beijing Marshall Biotechnology Co. Ltd.
Experimental method: on the day of the test, 6 beagle dogs were randomly grouped according to their body weights. The animals were fasted with water available for 14 to 18 hours one day before the administration of a test compound, and were fed 4 hours after the administration.
Sampling: Before and after the administration, 1.0 mL of blood was taken from the jugular veins or limb veins, and placed in an EDTAK2 centrifuge tube. Centrifugation was carried out at 5000 rpm at 4° C. for 10 min, and the plasma was collected.
(§4) Time points for plasma collection in IV&PO group: 0, 5 min, 15 min, 30 min, 1 h, 2 h, 4 h, 6 h, 8h, 10 h, 12h, and 24 h.
as §1

[4] = Pharmacokinetic experiment in monkeys; format: in vivo, cynomolgus monkeys; details: for bioavailability in monkeys / oral exposure in monkeys: compared with the trifluoroacetate of LNP023, in words; for bioavailability / AUC(0-t): male, cynomolgus monkey, plasma, po, monkeys, i.g. (5 mg/kg)
Description: as §3, with “to cynomolgus monkeys” for “to beagle dogs”, “the monkeys” for “the beagle dogs”, “the monkeys.” for “the beagle dogs.”
Experimental animals: Male cynomolgus monkeys, 3-5 kg, 3-6 years old, 6 monkeys/compound. Purchased from Suzhou Xishan Biotechnology Inc.
Experimental method: on the day of the test, 6 monkeys were randomly grouped according to their body weights. The animals were fasted with water available for 14 to 18 hours one day before the administration of a test compound, and were fed 4 hours after the administration.
Sampling: before and after the administration, 1.0 mL of blood was taken from the limb veins, and placed in an EDTAK2 centrifuge tube. Centrifugation was carried out at 5000 rpm at 4° C. for 10 min, and the plasma was collected.
as §4, §1

SMILES: COc1cc(C)c2[nH]ccc2c1CN1CCC(C2CCCC2)C[C@H]1c1ccc(C(=O)O)cc1 (single isomer, unassigned) [Ammonium of compound 11 (diastereomer 1)]
- IC50 [1]: < 0.2 µM

SMILES: COc1cc(C)c2[nH]ccc2c1CN1CCN(C2CC2)CC1c1ccc(C(=O)O)cc1 (single isomer, unassigned) [Compound 27-1, 4-(4-cyclopropyl-1-((5-methoxy-7-methyl-1H-indol-4-yl)methyl)piperazin-2-yl)benzoic acid]
- IC50 [1]: < 0.2 µM

SMILES: COc1cc(C)c2[nH]ccc2c1CN1CCC(C2CCC2)C[C@H]1c1ccc(C(=O)O)cc1 (single isomer, unassigned) [Formate of [compound 8 (diastereomer 1)]]
- IC50 [1]: < 0.2 µM

SMILES: COCC1CCN(Cc2c(OC)cc(C)c3[nH]ccc23)[C@H](c2ccc(C(=O)O)cc2)C1 (single isomer, unassigned) [Trifluoroacetate of compound 1-a]
- IC50 (FB): < 0.5 µM
- IC50 [1]: < 0.2 µM

SMILES: COc1cc(C)c2[nH]ccc2c1CN1CCC2(CCCO2)C[C@H]1c1ccc(C(=O)O)cc1 (single isomer, unassigned) [Trifluoroacetate of compound 2-a (diastereomer 1)]
- IC50 [1]: < 0.2 µM

SMILES: [2H]C([2H])([2H])Oc1cc(C)c2[nH]ccc2c1CN1CCC2(CCCO2)C[C@H]1c1ccc(C(=O)O)cc1 (single isomer, unassigned) [Trifluoroacetate of compound 6]
- IC50 (FB): < 0.5 µM
- IC50 [1]: < 0.2 µM

SMILES: COc1cc(C)c2[nH]ccc2c1CN1CCC(C2CC2)=C[C@H]1c1ccc(C(=O)O)cc1 [Ammonium salt of compound 12, (S)-4-(4-cyclopropyl-1-((5-methoxy-7-methyl-1H-indol-4-yl)methyl)-1,2,5,6-tetrahydropyridin-2-yl)benzoic acid]
- IC50 [1]: < 0.2 µM

SMILES: COc1cc(C)c2[nH]ccc2c1CN1CC[C@H](OCC2CC2)C[C@H]1c1ccc(C(=O)O)cc1 [Compound 4, 4-((2S,4S)-4-(cyclopropylmethoxy)-1-((5-methoxy-7-methyl-1H-indol-4-yl)methyl)piperidin-2-yl)benzoic acid]
- IC50 (FB): < 0.5 µM
- IC50 [1]: < 0.2 µM

- maximum plasma concentration in rats [2]: higher
- oral bioavailability in rats [2]: higher
- bioavailability [2]: 57.8%
- Cmax [2]: 2240 ng/mL
- Tmax [2]: 0.333 h
- half-life [2]: 4.15 h
- AUC(0-t) [2]: 7920 ng·h/mL
- time to peak [2]: shorter
- efflux ratio at 2 h, 2 μM (Caco2 permeability test): 4.62
- Papp A→B at 2 h, 2 μM (Caco2 permeability test): 2.62 ×10⁻⁶ cm/s
- Papp B→A at 2 h, 2 μM (Caco2 permeability test): 12.1 ×10⁻⁶ cm/s
- efflux ratio (Caco-2 cells): lower
- permeability (Caco-2 cells): better
- bioavailability [3]: 56.2%
- AUC(0-t) [3]: 25300 ng·h/mL
- half-life [3]: 8.89 h
SMILES: C#C[C@H]1CCN(Cc2c(OC)cc(C)c3[nH]ccc23)[C@H](c2ccc(C(=O)O)cc2)C1 [Compound 10 (diastereomer 1), 4-((2S)-4-ethynyl-1-((5-methoxy-7-methyl-1H-indol-4-yl)methyl)piperidin-2-yl)benzoic acid]
- IC50 [1]: < 0.2 µM

- maximum plasma concentration in rats [2]: higher
- oral bioavailability in rats [2]: higher
- bioavailability [2]: 65.5%
- Cmax [2]: 1600 ng/mL
- Tmax [2]: 0.583 h
- half-life [2]: 3.41 h
- AUC(0-t) [2]: 6030 ng·h/mL
- time to peak [2]: shorter
- bioavailability in monkeys [4]: higher
- oral exposure in monkeys [4]: higher
- bioavailability [4]: 70.5 ± 4.5%
- AUC(0-t) [4]: 16600 ± 1070 ng·h/mL
- efflux ratio at 2 h, 2 μM (Caco2 permeability test): 8.18
- Papp A→B at 2 h, 2 μM (Caco2 permeability test): 2.55 ×10⁻⁶ cm/s
- Papp B→A at 2 h, 2 μM (Caco2 permeability test): 20.9 ×10⁻⁶ cm/s
- efflux ratio (Caco-2 cells): lower
- permeability (Caco-2 cells): better
- bioavailability [3]: > 60%
- AUC(0-t) [3]: 36100 ng·h/mL
- half-life [3]: 7.26 h
SMILES: C#CCC1CCN(Cc2c(OC)cc(C)c3[nH]ccc23)[C@H](c2ccc(C(=O)O)cc2)C1 (stereo partly drawn) [Compound 13, 4-((2S)-1-((5-methoxy-7-methyl-1H-indol-4-yl)methyl)-4-(prop-2-yn-1-yl)piperidin-2-yl)benzoic acid]
- IC50 [1]: < 0.2 µM

SMILES: COCCO[C@H]1CCN(Cc2c(OC)cc(C)c3[nH]ccc23)[C@H](c2ccc(C(=O)O)cc2)C1 [Trifluoroacetate of compound 3, 4-[(2S,4S)-1-[(5-methoxy-7-methyl-1H-indol-4-yl)methyl]-4-(2-methoxyethoxy)piperidin-2-yl]benzoic acid]
- IC50 [1]: < 0.2 µM

SMILES: COc1cc(C)c2[nH]ccc2c1CN1CC[C@H](C2CC2)C[C@H]1c1ccc(C(=O)O)cc1 [Trifluoroacetate of compound 5-1 (diastereomer 2), 4-((2S)-4-cyclopropyl-1-((5-methoxy-7-methyl-1H-indol-4-yl)methyl)piperidin-2-yl)benzoic acid]
- IC50 [1]: < 0.2 µM

- maximum plasma concentration in rats [2]: higher
- oral bioavailability in rats [2]: higher
- bioavailability [2]: 72.1%
- Cmax [2]: 1130 ng/mL
- half-life [2]: 3.2 h
- AUC(0-t) [2]: 9160 ng·h/mL
- bioavailability in monkeys [4]: higher
- oral exposure in monkeys [4]: higher
- bioavailability [4]: 98.3 ± 7.5%
- AUC(0-t) [4]: 48300 ± 3660 ng·h/mL
- Papp A→B at 2 h, 2 μM (Caco2 permeability test): 1.77 ×10⁻⁶ cm/s
- Papp B→A at 2 h, 2 μM (Caco2 permeability test): 19.4 ×10⁻⁶ cm/s
- permeability (Caco-2 cells): better
- bioavailability [3]: 75.5%
- AUC(0-t) [3]: 45400 ng·h/mL
- half-life [3]: 15.1 h
SMILES: [2H]C([2H])([2H])Oc1cc(C)c2[nH]ccc2c1CN1CC[C@H](C2CC2)C[C@H]1c1ccc(C(=O)O)cc1 [Trifluoroacetate of compound 7 (diastereomer 1), 4-((2S)-4-cyclopropyl-1-((5-(methoxy-d3)-7-methyl-1H-indol-4-yl)methyl)piperidin-2-yl)benzoic acid]
- IC50 [1]: < 0.2 µM
